According to BindingDB's records for doi:10.1016/0024-3205(83)90740-3 (University of Toronto, 1983):
Several values for one entry are separate records, joined by “and”; a condition that tells them apart may be missing. Identical values can stand only once.

Target: 5-hydroxytryptamine receptor 2A (Rattus norvegicus, UniProt P14842)
Sequence (P14842 whole entry): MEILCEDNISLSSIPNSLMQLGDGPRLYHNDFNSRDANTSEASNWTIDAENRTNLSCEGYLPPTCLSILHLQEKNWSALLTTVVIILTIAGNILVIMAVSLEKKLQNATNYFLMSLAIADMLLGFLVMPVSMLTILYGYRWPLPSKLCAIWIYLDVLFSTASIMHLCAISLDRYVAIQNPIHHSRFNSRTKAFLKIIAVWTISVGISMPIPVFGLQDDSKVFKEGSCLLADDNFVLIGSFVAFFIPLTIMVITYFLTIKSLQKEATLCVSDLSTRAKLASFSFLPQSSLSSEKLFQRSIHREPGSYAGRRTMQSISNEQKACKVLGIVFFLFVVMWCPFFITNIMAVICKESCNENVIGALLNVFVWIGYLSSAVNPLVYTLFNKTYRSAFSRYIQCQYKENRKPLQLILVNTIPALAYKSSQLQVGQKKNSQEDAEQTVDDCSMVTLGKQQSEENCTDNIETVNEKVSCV

Structure (SMILES)	Ki
NCCc1c[nH]c2ccccc12 [1H-indole-3-ethanamine]	2930 nM and 1680 nM and 538 nM
c1ccc2nc(N3CCNCC3)ccc2c1 [2-Piperazin-1-yl-quinoline (Quipazine)]	575 nM and 226 nM and 100 nM
CN(C)CCCSc1ccccc1NC(=O)/C=C/c1ccccc1 [CINANSERIN]	10.1 nM and 5.45 nM and 4.45 nM
